In patent publication US20050181952A1, “Slow-release agrochemicals dispenser and method of use” (priority 2002, published 2005):

Key:
Striga [1] = test: Field experiment Short Rains 2002: slow release formulations without free herbicide, Striga control; type: in vivo
Protocol: A solid coat of polylvinylpyrollidone (PVP) (avg. MW 90 Kd) was used to bind the various formulations to the maize seed. 90 mg of PVP mixed with 2.9 ml water was combined with various amounts of the slow release formulations described in Example 1 or with 36 mg dry imazapyr (acid form) or sodium pyrithiobac powder mixed thoroughly together and then with 144 maize seeds (to give a imazapyr coating of 0.25 mg a.e. imazapyr seed^−1). This is the equivalent of 13.25 g a.e. ha^−1, respectively, when planted in the field at 53,300 seeds ha^−1. The treated seeds were then planted in the field within 2 days of coating. All field experiments were conducted at the National Sugar Research Center (NRSC) of the Kenya Agricultural Research Institute (KARI) near Kibos (0°04′S, 34°48′, elevation 1214 m) in western Kenya. The soil is classified as a vetro-eutic planosol according to the FAO/UNESCO (1974) system. The fields used had previously been cropped to maize that was heavily infested with Striga, which matured and seeded the area. The experiments were carried out during October-January […]. Seasonal precipitation during that season was 550 mm. […] Maize stand counts were determined six weeks after planting. […] The number of flowering Striga plants and Striga seed capsules at twelve and fourteen weeks; adjusted grain yield to 15% moisture; and total maize shoot dry weight were all measured. […]

Striga [2] = test: Pot experiments, Kenya: watering regimes and efficacy of slow release formulations on Striga; type: in vivo; conditions: pots
Protocol: Formulations were prepared as outlined in Example 3 and applied to the seeds, without adding free imazapyr (as in Example 2) and planted in pots. 63 pots (10,380 cm^3) were set up, each with 8 kg soil (classified as a vetro-eutic planosol according to the FAO/UNESCO (1974) system) so that we had 21 pots per replication. Each pot was inoculated with 3,000 Striga and mixed thoroughly at a depth of 15 cm. The pots were watered and left for one week to allow Striga seeds to “pre-condition” for germination. Two IR-corn seeds were planted in each plot, each treated 0, 0.25, 0.5 acid equivalent mg imazapyr per pot, as the free acid of the herbicide, or in 0, 0.15, 0.3, acid equivalent mg imazapyr per pot DE-52 or Dowex 1 formulations. Each formulation treatment at each rate had three replicates at each simulated rainfall regime. Natural rain measurements were made. Rainfall was supplemented at 19, 28, and 56 mm of water applied twice weekly, less amount of natural rainfall, for three months to simulate seasonal rainfalls of 500, 750 and 1500 mm, respectively. Measurements of Striga emergence were made at biweekly intervals. Late season emergence of Striga was measured at 12 weeks after planting. […] At the medium and highest watering level, there was no control of Striga by the lowest free herbicide rates, whereas the slow release herbicide performed far better (Table 3).

## CC(C)C1(C)N=C(c2ncccc2C(=O)O)NC1=O (centres unmarked) [Imazapyr, imazapyr]
Striga [1]; imazapyr 0.25 mg/seed
  Striga emergence (m^−2) at 12 weeks: 2.1 m^−2
Striga [1]; imazapyr 0.5 mg/seed
  Striga emergence (m^−2) at 12 weeks: 0.7 m^−2
Striga [2]; High water (1500 mm total), imazapyr 0.25 mg/seed
  Late season Striga emergence 12 weeks (plants/m^2): 57 plants/m^2
Striga [2]; High water (1500 mm total), imazapyr 0.5 mg/seed
  Late season Striga emergence 12 weeks (plants/m^2): 11 plants/m^2
Striga [2]; Low water (500 mm total), imazapyr 0.25 mg/seed
  Late season Striga emergence 12 weeks (plants/m^2): 16 plants/m^2
Striga [2]; Low water (500 mm total), imazapyr 0.5 mg/seed
  Late season Striga emergence 12 weeks (plants/m^2): 3 plants/m^2
Striga [2]; Medium water (750 mm total), imazapyr 0.25 mg/seed
  Late season Striga emergence 12 weeks (plants/m^2): 33 plants/m^2
Striga [2]; Medium water (750 mm total), imazapyr 0.5 mg/seed
  Late season Striga emergence 12 weeks (plants/m^2): 7 plants/m^2
